Test results: paper PMC9824012, “Exploring Antimicrobial Peptides Efficacy against Fire Blight (Erwinia amylovora)” (Plants, 2022)
Read-outs that look alike come from different tables or passages of the source. Ends that are not written are not given here.

Key:
Erwinia amylovora [1] = test: Spot test screening of AMPs on plates; assay type: cell-based, Erwinia amylovora strain PGL Z1; design: key to Spot test result at 1 mM / Spot test result at 500 µM / Spot test result at 250 µM / Spot test result at 100 µM / Spot test result at 50 µM / Spot test result at 25 µM / Spot test result at 12.5 µM: +: Clear plaque formation; -: no plaque formation; settings: for Spot test result at 12.5 µM: 5 µL peptide at 12.5 µM spotted on plate with E. amylovora 10^8 CFU/mL; for Spot test result at 12.5 µM / Spot test result at 25 µM / Spot test result at 50 µM / Spot test result at 100 µM / Spot test result at 250 µM / Spot test result at 500 µM / Spot test result at 1 mM: overnight at 25 °C; for Spot test result at 25 µM: 5 µL peptide at 25 µM spotted on plate with E. amylovora 10^8 CFU/mL; for Spot test result at 50 µM: 5 µL peptide at 50 µM spotted on plate with E. amylovora 10^8 CFU/mL; for Spot test result at 100 µM: 5 µL peptide at 100 µM spotted on plate with E. amylovora 10^8 CFU/mL; for Spot test result at 250 µM: 5 µL peptide at 250 µM spotted on plate with E. amylovora 10^8 CFU/mL; for Spot test result at 500 µM: 5 µL peptide at 500 µM spotted on plate with E. amylovora 10^8 CFU/mL; for Spot test result at 1 mM: 5 µL peptide at 1 mM spotted on plate with E. amylovora 10^8 CFU/mL; for Spot test, killing of E. amylovora at 50 µM (in words): peptide 50 µM
Description: (§1) The bacterial material consisted of E. amylovora strain PGL Z1, isolated in 2013 from pear in Apulia region (Italy), and Xanthomonas campestris pv. campestris strain CFBP 1710 (X. campestris), isolated in 1975 from Brassica oleracea var. botrytis in France, which was used as a control to investigate the bactericidal activity and action mode of AMPs against two different bacteria. The bacterial strains were cultured on yeast extract peptone glucose agar (YPGA) and broth (YPG) media, consisting of 0.5% yeast extract, 0.5% peptone, 1% glucose and 1.5% agar. E. amylovora and X. campestris cell suspensions were prepared in sterile distilled water and the suspensions were adjusted to an optical density at 600 nm (OD600) of 0.1, which corresponds approximately to 10^8 CFU/mL.
The nine AMPs were screened using the spot test to select those with the best antibacterial activity against E. amylovora. Briefly, 300 µL of E. amylovora suspension (10^8 CFU/mL) was poured into the plates and maintained at room temperature for 15 min. Subsequently, 5 μL from each peptide at different concentrations (1000, 500, 250, 100, 50, 25 and 12.5 μM) was spotted onto the surface of the plates, followed by overnight incubation at 25 °C. Sterile distilled water was spotted in the plates as a control.
Supplementary Table S1. Results of the spot tests for the nine antimicrobial peptides used against Erwinia
Ascaphin-8 GF-19 + + + + + - -
DASamP1 FF-13 + + + - - - -
DASamP2 IL-14 + + + + + - -
Lycotoxin I IL-25 + + + + - - -
Maculatin 1.3 GF-21 + + + - - - -
Piscidin 1 FG-22 + + + + + - -
BP178 KL-29 + + + + + + -
RIJK2 RV-12 + + + - - - -
+: Clear plaque formation; -: no plaque formation.

Erwinia amylovora [2] = settings: 24 h
Description: as §1
Briefly, 20 µL from each concentration (50 and 250 µM) was mixed with 180 µL of E. amylovora suspension (YPG) and incubated at 25 °C for 24 h. Six OD600 nm measures were taken over 24 h using the NanoDrop™ One/OneC Microvolume UV-Vis Spectrophotometer (ThermoFisher Scientific, Waltham, MA, USA).

Erwinia amylovora [3] = test: Fluorescence microscopy LIVE/DEAD BacLight (SYTO9/PI); assay type: cell-based, Erwinia amylovora strain PGL Z1; settings: 1 h, calculated from SYTO9 and PI counts
Description: The bactericidal activity of the selected peptides (GF19, FG22, IL14, and KL29) was assessed by a test contact for 24 h, as described (Section 2.3), coupled with v-qPCR assay using the PMAxx™ (Biotium, Rome, Italy). PMAxx™ is a photo-reactive dye that binds to DNA with high affinity; upon cell lysis, it covalently attaches to disrupted DNA that cannot be amplified by PCR. This unique feature makes PMAxx™ extremely useful in selective detection of bacterial cells with intact plasma membranes by qPCR. Briefly, after 24 h at 25 °C, 200 µL of the mixture was transferred to a new tube and treated with PMAxx at a final concentration of 7.5 μM. Subsequently, samples were incubated in the dark at room temperature for 8 min, followed by photoactivation for 15 min. Genomic DNA of all samples was extracted using the cetyltrimethylammonium bromide (CTAB) method. v-qPCR was carried out in a thermocycler apparatus (Bio-Rad CFX96, BioRad, Milan, Italy), using Ea-lsc primers and conditions reported in Laforest et al.. The v-qPCR cycles consisted of an initial denaturation step of 95 °C for 5 min; 45 cycles of 95 °C for 30 s and 60 °C for 30 s with fluorescence readings at each cycle. For the FM assay, aliquots of E. amylovora suspension were incubated with 50 and 250 μM of selected peptides for 1 h at room temperature. The same protocol was used for X. campestris at different concentrations (100, 50, 25, 12.5, 6.25, 2 μM) using KL29 peptide, known for its potent bactericidal activity against X. campestris. The LIVE/DEAD ®BacLight™ viability kit (ThermoFisher Scientific, Milan, Italy) was used according to the manufacturer’s recommendation to assess the integrity of bacteria cells treated with the peptides at 1 h post-infection (Stocks, 2004). Briefly, 9 μL of sample was mixed with 0.5 μL of SYTO9 and 0.5 μL of propidium iodide (PI) for 15 min at room temperature in the dark. Photomicrographs were taken with a Nikon E800 microscope using a fluorescein isothiocyanate (480/30 excitation filter, DM505 dichroic mirror, 535/40 emission filter) and tetramethyl rhodamine isocyanate (546/10 excitation filter, DM575 dichroic mirror, 590 emission filter) fluorescence filter sets.
Supplementary Table S2. The statistical analysis consisted of counting the coloured spo ts (green: SYTO9 and red: PI) in the different channels of 10 replicas for the two concentrations of each antimicrobial peptide and the relative percentages of viable cells is calculated.
250 µM 50 µM % of viability
(1 picture or pasted object on this page, not shown here)

Erwinia amylovora [4] = test: In vivo antibacterial activity on inoculated immature pear fruits; design: species or system Erwinia amylovora on pear fruits (cv. 'Recchia falsa'); settings: immature pears, 6 days at 25 °C, eight replicates
Description: To evaluate the in vivo antibacterial activity of selected AMPs, immature pear fruits (cv. ‘Recchia falsa’) were inoculated with E. amylovora and AMPs were applied. Briefly, ten-week-old pears were disinfected by immersion in a 70% ethanol solution for 2 min and then rinsed 3 times in sterile distilled water. Disinfected fruits were pricked to approximately 5 mm deep, with a sterile micropipette tip and inoculated with 20 µL of E. amylovora suspension (10^8 CFU/mL). Once the fruits had absorbed the bacteria, two concentrations of peptides (50 and 250 µM) were used; 20 µL of the concentration was introduced into the inoculation site and incubated in a humid chamber at 25 °C for 6 days. Fruits inoculated with sterile water and with E. amylovora suspension were included as controls. The experiment consisted of eight replicates per treatment, and symptoms were recorded at 6 days post-infection. The symptoms developed in immature pears (i.e., necrosis or bacterial exudates) were evaluated by measuring the diameter of necrotic lesions. The data were then analyzed using variance analysis (ANOVA), followed by Duncan’s multiple range test (α = 0.05), using SPSS statistical software (version 24.0, IBM, Armonk, N.Y., USA). All data were presented as mean values ± standard deviation (SD).

immature pear fruits = assay type: in vivo, pear (cv. 'Recchia falsa')
Description: (§2) The possible toxicity of the selected peptides was evaluated using immature pear fruits (cv. ‘Recchia falsa’), and horse erythrocyte cells, respectively, as plant and animal cell models. Briefly, six fruits for each peptide were pricked to approximately 5 mm deep and inoculated with 100 µL of the corresponding peptide at 50 and 250 µM concentrations. Fruits were kept in a chamber at room temperature for 5 days and repeatedly examined for the development of lesions. The peptide toxicity was measured as lesion diameter. Erythrocytes from a horse blood sample (provided by the University of Bari, Department of Veterinary Medicine, Valenzano, Italy) were used for the hemolytic assay. The erythrocytes were challenged with AMPs at 50 and 250 µM for 3 h and their possible hemolytic activity was observed under light microscope.

horse erythrocyte cells = assay type: cell-based
Description: as §2

[5] = 20 µL peptide at 50 µM into inoculation site
[6] = 20 µL peptide at 250 µM into inoculation site
[7] = 100 µL peptide at 50 and 250 µM, 5 days at room temperature, six fruits per peptide
[8] = peptide 50 and 250 µM, 3 h, light microscope

Substance | Spot test result at 12.5 µM (Erwinia amylovora [1]) | Spot test result at 25 µM (Erwinia amylovora [1]) | Spot test result at 50 µM (Erwinia amylovora [1]) | Spot test result at 100 µM (Erwinia amylovora [1]) | Spot test result at 250 µM (Erwinia amylovora [1]) | Spot test result at 500 µM (Erwinia amylovora [1]) | Spot test result at 1 mM (Erwinia amylovora [1]) | Spot test, killing of E. amylovora at 50 µM (in words) (Erwinia amylovora [1]) | Inhibition of E. amylovora growth (OD600) (Erwinia amylovora [2]; 50 µM) | Inhibition of E. amylovora growth (OD600) (Erwinia amylovora [2]; 250 µM) | % of viability (Erwinia amylovora [3]; peptide 50 µM) | % of viability (Erwinia amylovora [3]; peptide 250 µM) | Reduction of fire blight symptoms (necrotic lesion diameter) (Erwinia amylovora [4]; [5]) | Reduction of fire blight symptoms (necrotic lesion diameter) (Erwinia amylovora [4]; [6]) | Toxicity (hypersensitive or cytotoxic activity) on pear fruits (in words) (immature pear fruits; in vivo) | Toxicity (hemolytic or cytotoxic activity) on horse erythrocytes (in words) (horse erythrocyte cells) | Toxicity (hypersensitive or cytotoxic activity) on pear fruits (in words) (immature pear fruits; [7]) | Toxicity (hemolytic or cytotoxic activity) on horse erythrocytes (in words) (horse erythrocyte cells; [8])
FFGKVLKLIRKIF-NH2 [FF13, DASamP1, synthetic antimicrobial peptide, synthesized by ProteoGenix] | - | - | - | - | + | + | + |  |  |  |  |  |  |  |  |  |  | 
FFHHIFRGIVHVGKTIHRLVTG [FG22, Piscidin 1] [listing 1 of 2 here] | - | - | + | + | + | + | + | could kill E. amylovora | ~60% | 92% | 28% | 49% | 48% | 65% |  |  |  | 
FFHHIFRGIVHVGKTIHRLVTG [FG22, Piscidin 1] [listing 2 of 2 here] |  |  |  |  |  |  |  |  |  |  |  |  |  |  | toxicologically safe for plant and animal cells | toxicologically safe for plant and animal cells |  | 
GFKDLLKGAAKALVKTVLF-NH2 [GF19, Ascaphin-8] | - | - | + | + | + | + | + | could kill E. amylovora |  |  | 44% | 64% | 43% | 48% |  |  | toxicologically safe for plant and animal cells | toxicologically safe for plant and animal cells
GLLGLLGSVVSHVVPAIVGHF-NH2 [GF21, Maculatin 1.3, antimicrobial peptide of frog origin, synthesized by ProteoGenix] | - | - | - | - | + | + | + |  |  |  |  |  |  |  |  |  |  | 
IKWKKLLRAAKRIL-NH2 [IL14, DASamP2] | - | - | + | + | + | + | + | could kill E. amylovora |  |  | 15% | 48% | 61% | 76% |  |  | toxicologically safe for plant and animal cells | toxicologically safe for plant and animal cells
Lycotoxin I [IL25] | - | - | - | + | + | + | + |  |  |  |  |  |  |  |  |  |  | 
RIVWVRIRRWFV-NH2 [RV12, RIJK2, synthetic antimicrobial peptide, synthesized by ProteoGenix] | - | - | - | - | + | + | + |  |  |  |  |  |  |  |  |  |  | 
VQFRIRVRIVIRK-NH2 [VK13, 1036, synthetic antimicrobial peptide, synthesized by ProteoGenix] | - | - | - | - | + | + | + |  |  |  |  |  |  |  |  |  |  | 
